Assay results reported in patent US20250127716A1, “INHALED IMATINIB FOR TREATMENT OF PULMONARY HYPERTENSION” (JUSTUS-LIEBIG-UNIVERSITAET GIESSEN, priority 2022, published 2025).
“Also recorded” adds a separate entry of the source. Counter-ions that a name gives are not always drawn. Each block holds one compound with its values, some of them ahead of it.

Experiments:
[1] = Formulation of stable concentrated imatinib solutions in different solvents (Examples 1-4); conditions: room temperature, one hour
[2] = cited from earlier work
PAH-patients = conditions: oral, cited from earlier work
[3] = In vitro nebulization feasibility, Medspray wet aerosol inhaler single nozzle unit (Example 5); assay type: physicochemical; conditions: Medspray nozzle pore size 1.9 μm
Experimental: In an in vitro nebulization study, the feasibility to nebulize different imatinib mesylate solutions by the Medspray™ wet aerosol inhaler was evaluated. A 1 ml syringe was filled with the formulation to be tested, a single nozzle unit of Medspray™ wet aerosol inhaler was then fixed on the syringe by a luer adapter. The nozzle pore size was 1.9 μm. The aerosol was produced by pressing the piston of the syringe manually, thereby forcing the solution through the nozzle pores. […] When using ethanol 10% (v/v) or glycerol 1% (v/v), solutions with a concentration of 240 mg/ml were nebulizable; a mixture of ethanol 10% (v/v) and glycerol 1% (v/v) further increased the maximum imatinib concentration of the solution to 250 mg/ml capable of being nebulized.

PAH patients = conditions: oral; phase II, 59 patients; cited from earlier work
[4] = 24-week trial, 202 PAH-patients

- imatinib concentration of stable solution that could be formulated ([1]; a. dest, NaCl 0.9%, citrate buffer 5%, urea 5%, ethanol 10%, glycerol 1%): ≤ 5 mg/mL
Compound: Cc1ccc(NC(=O)c2ccc(CN3CCN(C)CC3)cc2)cc1Nc1nccc(-c2cccnc2)n1 [Imatinib free base, 4-[(4-methylpiperazin-1-yl)methyl]-N-(4-methyl-3-{[4-(pyridin-3-yl)pyrimidin-2-yl]amino}phenyl)benzamide]

- stability of resulting solutions ([1]; higher ionic strength solvents of Example 3): not stable
- concentration of stable imatinib mesylate solution that could be formulated ([1]; higher ionic strength solvents: NaCl 0.9%, HCl/NaOH, citrate, HEPES, trometamol, PBS buffer): < 50000 µg/mL
- concentration of stable imatinib mesylate solution that could be formulated ([1]; low ionic strength solvents of Example 4 (a. dest, ethanol, urea, glycerol, mannitol, glycols, ectoin)): up to 500 mg/ml
- maximum concentration capable of being nebulized ([3]; solvent a. dest): 210 mg/mL
- maximum imatinib concentration capable of being nebulized ([3]; solvent ethanol 10% (v/v) and glycerol 1% (v/v)): 250 mg/mL
- concentration nebulizable ([3]; solvent ethanol 10% (v/v)): 240000 µg/mL
- concentration nebulizable ([3]; solvent glycerol 1% (v/v)): 240000 µg/mL
Compound: Cc1ccc(NC(=O)c2ccc(CN3CCN(C)CC3)cc2)cc1Nc1nccc(-c2cccnc2)n1 [Imatinib mesylate]
- inter-subject variation in pharmacokinetics ([2]; in vivo): high
- bioavailability ([2]; oral): almost complete
- 6-minute walk distance (primary outcome) (PAH-patients; [4]): significantly improving; also recorded: significantly improved
- pulmonary vascular resistance (PAH-patients; [4]): significantly improved
- change from baseline in the 6-minute-walk distance (primary endpoint) (PAH patients): not meeting the primary endpoint
- pulmonary hemodynamics (secondary endpoint) (PAH patients): significantly improved

Compound: Cc1ccc(NC(=O)c2ccc(CN3CCN(C)CC3)cc2)cc1Nc1nccc(-c2cccnc2)n1 [imatinib, 4-[(4-methylpiperazin-1-yl)methyl]-N-(4-methyl-3-{[4-(pyridin-3-yl)pyrimidin-2-yl]amino}phenyl)benzamide]
- adverse events, side effects and discontinuation (PAH-patients; study and open-label extension phase): severe adverse events, significant side effects, and a high discontinuation rate
